In assay [1] the test system is Plasmodium falciparum. In words: (§1) Inhibitory activity against Chloroquine-sensitive Plasmodium falciparum. Type of assay: functional, organism-based.
In assay [2] the test system is Plasmodium falciparum. In words: Inhibitory activity against chloroquine-resistant Plasmodium falciparum. The assay is classed as functional, organism-based.
For assay [3], the system named is Plasmodium falciparum. In words: Inhibitory activity against Chloroquine-resistant Plasmodium falciparum. Particulars: read-out: ED50 (the source's name). Type of assay: functional.
The test system of assay [4] is Plasmodium falciparum. The assay is described as §1. The assay is classed as functional. Particulars: read-out: ED50 (the source's name).
Assay [5] relates to Plasmodium falciparum. In words: (§2) In vitro inhibition against Plasmodium falciparum. The assay is classed as functional, organism-based.
Assay [6] concerns Plasmodium falciparum. In words: In vitro inhibition against Plasmodium falciparum; […]. Type of assay: functional, organism-based.
Assay [7] has as its system Plasmodium falciparum. The assay is described as §2. The assay is classed as functional. Conditions: read-out: ED50 (the source's name).

Drawing on ChEMBL document CHEMBL1124140, “Oxidants, oxidant drugs, and malaria” (J Med Chem, 1988), this text covers IC50 and EC50 for five molecules.

Each structure is given as a SMILES string.

Take `CC(C)(C)OC(=O)OC1CCC2C[C@@H]3C=CC2(OO3)C1(C)C` (some centres not stated): the half-inhibitory concentration (IC50) with Plasmodium falciparum [1] worked out at 190 nM; in the assay on Plasmodium falciparum [2], 330 nM.

Turning to `CC(C)C12CCC(C)(CC1)OO2`, the figures for the EC50 with Plasmodium falciparum [3] and with Plasmodium falciparum [4] were 210 nM and 80 nM, respectively.

In the case of `CC(C)(C)COO`, the IC50 in the assay on Plasmodium falciparum [5] was 41000 nM.

In the assay on Plasmodium falciparum [6], `C[C@@H]1CC[C@H]2[C@@H](C)C(=O)O[C@@H]3O[C@@]4(C)CC[C@@H]1[C@]32OO4` [ARTEMISININ] came in with a half-inhibitory concentration (IC50) of 4 nM.

`CC1=C2[C@H]3OC(=O)[C@@H](C)[C@@H]3CC[C@@]2(C)C=CC1=O` [SANTONIN]: in the assay with Plasmodium falciparum [7], the EC50 was found to be 2800 nM.
